Tests used:
Btk [1] = biological target: Btk (Mus musculus (Mouse), UniProt P35991); assay: Btk occupancy in vivo (PBMCs/splenocytes, PCI-33380 labeling); settings: Babc/L mice, after 4 hours
Method: For analysis of Btk occupancy in Babc/L mice following oral dosing of compounds after 4 hours. Isolating peripheral blood mononuclear cells (PBMCs) with mouse peripheral blood separation kit (Hao Yang Biological Manufacture CO., LTD, Tianjin) were collected from Babc/L mice (1 ml blood from two mice). Spleens were processed to splenocytes followed by 5 min incubation in red blood cell lysing buffer (from mouse peripheral blood separation kit). PBMCs or splenocytes were then PCI-33380-labeled and lysates analyzed by fluorescent gel scanning as described in cellular assays.

BTK [2] = biological target: T1, BTK (Homo sapiens (Human), UniProt Q06187); assay: Btk occupancy in cellular assays (PCI-33380 labeling); format: cell-based; settings: Jeko-1 cells, 1.5 h pre-incubation, PCI-33380 probe
Method: Btk Occupancy in Cellular Assays
For PCI-33380 labeling of human B cells, 10^6 Jeko-1 cells were pre-incubated with compound for 1.5 h before labeling. Then cells were treated with PCI-33380 at 5 μM for 1 h. Washed, lysed in Ripa buffer containing sample reducing agent, and analyzed by SDS/PAGE and fluorescent gel scanning using a Typhoon scanner 9500 (GE Healthcare) (Ex, 532 nm; Em, 555 nm). The gel was then blotted and total Btk levels detected by standard Western blot with Btk antibody (CST).
Target sequence in this assay (Q06187 whole entry): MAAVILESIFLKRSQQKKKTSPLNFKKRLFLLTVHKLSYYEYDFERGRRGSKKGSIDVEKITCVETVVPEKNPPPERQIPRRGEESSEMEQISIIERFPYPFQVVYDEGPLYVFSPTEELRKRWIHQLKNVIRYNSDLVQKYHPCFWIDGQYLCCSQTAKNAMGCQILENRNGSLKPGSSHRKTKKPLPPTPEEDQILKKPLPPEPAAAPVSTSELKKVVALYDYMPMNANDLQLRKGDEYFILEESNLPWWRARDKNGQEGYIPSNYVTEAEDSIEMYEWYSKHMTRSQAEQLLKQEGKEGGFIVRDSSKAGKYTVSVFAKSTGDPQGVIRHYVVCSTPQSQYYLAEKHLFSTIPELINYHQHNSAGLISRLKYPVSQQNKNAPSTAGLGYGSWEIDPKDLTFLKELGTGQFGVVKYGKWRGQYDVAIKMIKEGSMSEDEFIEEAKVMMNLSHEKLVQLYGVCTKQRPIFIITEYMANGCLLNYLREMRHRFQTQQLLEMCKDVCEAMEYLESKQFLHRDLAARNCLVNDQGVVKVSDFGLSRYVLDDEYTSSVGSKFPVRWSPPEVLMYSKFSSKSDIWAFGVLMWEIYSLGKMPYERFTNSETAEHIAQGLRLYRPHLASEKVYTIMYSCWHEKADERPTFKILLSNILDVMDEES

Ramos cells = assay: Calcium flux assay, anti-IgM stimulated Ramos cells; format: cell-based; settings: Homo sapiens, IgM-induced calcium influx, read-out: Ramos Ca Flux
Method: Calcium flux fluorescence-based assays were performed in aFDSS7000EX (Hamamatsu Photonics) fluorometric imaging plate reader according to manufacturer instructions. Compounds to be assayed were dissolved in DMSO, diluted to appropriate concentrations in Ca^2+ buffer ranging from 0 to 10 μM (at a dilution factor of 0.1), added 5 μl (6 X) to each well (the final DMSO concentration was 0.1% in each well). Then 12.5 μL 2× dye loading solution (Fluo-4 NW Calcium Assay Kits, Invitrogen) was added per well of a 384-well plate. Afterwards, actively growing Ramos cells (ATCC) in RPM1640 medium supplemented with 10% FBS (Invitrogen) were washed and re-plated in assay buffer (from Fluo-4 NW Calcium Assay Kits, Invitrogen) to approximately 6.4×10^6/ml (80000 cells/12.5 μL in 384-well plates). The plates were incubated at 37° C. for 30 minutes, then at room temperature for an additional 30 minutes. The plates were now ready to be used in an experiment. Immediately after the transfer and a 10-s recording of baseline fluorescence, the compound treated cells were stimulated with a goat anti-human IgM antibody ([…]; Jackson Immuno Research) and read in a FDSS for 240 seconds. Difference between the signal and that at baseline, designated adjusted relative fluorescence unit, was calculated by using a custom Excel (Microsoft, Redmond, Wash.) template to determine IgM-induced calcium influx and its inhibition by compounds. The table below show the result.

BTK [3] = biological target: T1, BTK; assay: Btk kinase assay (HTRF); format: biochemical; settings: [ATP]=80 μM, BTK=3.4 nM; read-out: BTK Inhibition
Method: Btk Kinase Assay and Other Kinases Assay Btk kinase activity was determined using a homogenous time resolved fluorescence (HTRF) methodology. Measurements were performed in a reaction volume of 15 μL using 384-well assay plates. […] Activity was determined by the ratio of the fluorescence at 665 nm to that at 615 nm. For each compound, enzyme activity as measured at various concentrations of compound, Negative control reactions were performed in the absence of inhibitor in two replicates and eight no enzyme controls were used to determine baseline fluorescence levels.
Target sequence in this assay (Q06187 whole entry, species assumed): as the sequence (Q06187 whole entry) above

Sequence of Btk (P35991 whole entry): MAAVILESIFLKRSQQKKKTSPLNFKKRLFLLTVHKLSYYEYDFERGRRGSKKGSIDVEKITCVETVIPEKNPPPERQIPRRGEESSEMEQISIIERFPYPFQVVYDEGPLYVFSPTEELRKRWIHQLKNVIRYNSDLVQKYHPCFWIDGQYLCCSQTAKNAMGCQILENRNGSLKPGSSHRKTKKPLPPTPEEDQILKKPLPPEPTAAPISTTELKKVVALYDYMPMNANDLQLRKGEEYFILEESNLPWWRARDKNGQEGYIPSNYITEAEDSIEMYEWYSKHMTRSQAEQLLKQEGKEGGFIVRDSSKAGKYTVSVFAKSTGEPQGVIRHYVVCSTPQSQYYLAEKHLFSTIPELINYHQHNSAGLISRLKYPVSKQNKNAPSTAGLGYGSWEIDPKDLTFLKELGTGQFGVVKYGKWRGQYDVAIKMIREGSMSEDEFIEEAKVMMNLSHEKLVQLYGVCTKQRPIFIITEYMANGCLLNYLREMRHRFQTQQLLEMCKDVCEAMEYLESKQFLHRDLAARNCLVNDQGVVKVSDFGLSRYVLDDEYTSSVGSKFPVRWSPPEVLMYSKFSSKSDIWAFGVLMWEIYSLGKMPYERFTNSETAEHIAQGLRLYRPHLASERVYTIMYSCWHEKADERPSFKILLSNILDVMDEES

Compound	concentration sufficient to fully occupy the active site of Btk (BTK [2]) [nM]	further results
C=CC(=O)N1CCC[C@@H](n2nc(-c3ccc(Oc4cccc(OC)c4Cl)cc3)c3cnccc32)C1 [Example 2, (R)-1-(3-(3-(4-(2-chloro-3-methoxyphenoxy)phenyl)-1H-pyrazolo[4,3-c]pyridin-1-yl)piperidin-1-yl)prop-2-en-1-one]	100	Btk occupancy in vivo (Btk [1]; 10 mg/kg single oral dose): full occupancy; IC50 (Ramos cells): 10 to 100 nM
C=CC(=O)N1CC[C@@H](n2nc(-c3ccc(Oc4cccc(OC)c4F)cc3)c3cnccc32)C1 [Example 3, (R)-1-(3-(3-(4-(2-fluoro-3-methoxyphenoxy)phenyl)-1H-pyrazolo[4,3-c]pyridin-1-yl)pyrrolidin-1-yl)prop-2-en-1-one]	50	Btk occupancy in vivo (Btk [1]; 10 mg/kg single oral dose): full occupancy; IC50 (Ramos cells): 10 to 100 nM
C=CC(=O)N1CC[C@@H](n2nc(-c3ccc(Oc4cccc(F)c4Cl)cc3)c3cnccc32)C1 [Example 4, (R)-1-(3-(3-(4-(2-chloro-3-fluorophenoxy)phenyl)-1H-pyrazolo[4,3-c]pyridin-1-yl)pyrrolidin-1-yl)prop-2-en-1-one]	100	Btk occupancy in vivo (Btk [1]; 10 mg/kg single oral dose): full occupancy; IC50 (Ramos cells): 10 to 100 nM
C=CC(=O)N1CCC[C@@H](n2nc(-c3ccc(Oc4cccc(OC)c4F)cc3)c3cncc(OC)c32)C1 [Example 6, (R)-1-(3-(3-(4-(2-fluoro-3-methoxyphenoxy)phenyl)-7-methoxy-1H-pyrazolo[4,3-c]pyridin-1-yl)piperidin-1-yl)prop-2-en-1-one]	–	IC50 (Ramos cells): 10 to 100 nM
C=CC(=O)N1CCC[C@@H](n2nc(-c3ccc(Oc4cccc(F)c4F)cc3)c3cnccc32)C1 [Example 17, (R)-1-(3-(3-(4-(2,3-difluorophenoxy)phenyl)-1H-pyrazolo[4,3-c]pyridin-1-yl)piperidin-1-yl)prop-2-en-1-one]	100	–
C=CC(=O)N1CC[C@@H](n2nc3ccncc3c2-c2ccc(Oc3cccc(Cl)c3Cl)cc2)C1 [Example 41, (R)-1-(3-(3-(4-(2,3-dichlorophenoxy)phenyl)-2H-pyrazolo[4,3-c]pyridin-2-yl)pyrrolidin-1-yl)prop-2-en-1-one]	100	–
C=CC(=O)N1CCC[C@@H](n2nc3ccncc3c2-c2ccc(Oc3cccc(Cl)c3Cl)cc2)C1 [Example 43, (R)-1-(3-(3-(4-(2,3-dichlorophenoxy)phenyl)-2H-pyrazolo[4,3-c]pyridin-2-yl)piperidin-1-yl)prop-2-en-1-one]	100	–
C=CC(=O)N1CC[C@@H](n2nc(-c3ccc(Oc4cccc(OC)c4Cl)cc3)c3cncc(OC)c32)C1 [Example 69, (R)-1-(3-(3-(4-(2-chloro-3-methoxyphenoxy)phenyl)-7-methoxy-1H-pyrazolo[4,3-c]pyridin-1-yl)pyrrolidin-1-yl)prop-2-en-1-one]	100	–
C=CC(=O)N1CCC[C@@H](n2nc(-c3ccc(Oc4cccc(OC)c4F)cc3)c3cnccc32)C1 [Example 71, (R)-1-(3-(3-(4-(2-fluoro-3-methoxyphenoxy)phenyl)-1H-pyrazolo[4,3-c]pyridin-1-yl)piperidin-1-yl)prop-2-en-1-one]	100	Btk occupancy in vivo (Btk [1]; 10 mg/kg single oral dose): full occupancy
C=CC(=O)N1CCC[C@@H](n2nc(-c3ccc(Oc4cccc(OC)c4F)cc3)c3cncc(OCC)c32)C1 [Example 73, (R)-1-(3-(7-ethoxy-3-(4-(2-fluoro-3-methoxyphenoxy)phenyl)-1H-pyrazolo[4,3-c]pyridin-1-yl)piperidin-1-yl)prop-2-en-1-one]	100	Btk occupancy in vivo (Btk [1]; 5 mg/kg single oral dose): full occupancy
C=CC(=O)N1CCC[C@@H](n2nc(-c3ccc(Oc4cccc(OC)c4F)cc3)c3cncc(OCCC)c32)C1 [Example 77, (R)-1-(3-(3-(4-(2-fluoro-3-methoxyphenoxy)phenyl)-7-propoxy-1H-pyrazolo[4,3-c]pyridin-1-yl)piperidin-1-yl)prop-2-en-1-one]	25	–
C=CC(=O)N1CCC[C@@H](n2nc(-c3ccc(Oc4cccc(OC)c4F)cc3)c3c(C)nccc32)C1 [Example 78, (R)-1-(3-(3-(4-(2-fluoro-3-methoxyphenoxy)phenyl)-4-methyl-1H-pyrazolo[4,3-c]pyridin-1-yl)piperidin-1-yl)prop-2-en-1-one]	50	–
C=CC(=O)N1CC[C@@H](n2nc(-c3ccc(Oc4cccc(OC)c4F)cc3)c3cncc(OC)c32)C1 [Example 79, (R)-1-(3-(3-(4-(2-fluoro-3-methoxyphenoxy)phenyl)-7-methoxy-1H-pyrazolo[4,3-c]pyridin-1-yl)pyrrolidin-1-yl)prop-2-en-1-one]	50	–
C=CC(=O)N1CC[C@@H](n2nc(-c3ccc(Oc4cccc(OC)c4F)cc3)c3cncc(OCC)c32)C1 [Example 80, (R)-1-(3-(7-ethoxy-3-(4-(2-fluoro-3-methoxyphenoxy)phenyl)-1H-pyrazolo[4,3-c]pyridin-1-yl)pyrrolidin-1-yl)prop-2-en-1-one]	50	–
COc1cccc(Oc2ccc(-c3nn([C@@H]4CCCN(C(=O)/C(C#N)=C/C(C)(C)C)C4)c4c(OC)cncc34)cc2)c1F [Example 90, (R,E)-2-(3-(3-(4-(2-fluoro-3-methoxyphenoxy)phenyl)-7-methoxy-1H-pyrazolo[4,3-c]pyridin-1-yl)piperidine-1-carbonyl)-4,4-dimethylpent-2-enenitrile]	–	IC50 (BTK [3]): 10 to 100 nM
C=CC(=O)N1CCCC1Cn1nc(-c2ccc(Oc3cccc(OC)c3F)cc2)c2cncc(OC)c21 (centres unmarked) [Example 91, 1-(2-((3-(4-(2-fluoro-3-methoxyphenoxy)phenyl)-7-methoxy-1H-pyrazolo[4,3-c]pyridin-1-yl)methyl)pyrrolidin-1-yl)prop-2-en-1-one]	–	Btk occupancy in vivo (Btk [1]; 5 mg/kg single oral dose): full occupancy
C=CC(=O)N1CCC[C@@H](n2nc(-c3ccc(Oc4cccc(OC)c4F)cc3)c3cncc(OCCO)c32)C1 [Example 98, (R)-1-(3-(3-(4-(2-fluoro-3-methoxyphenoxy)phenyl)-7-(2-hydroxyethoxy)-1H-pyrazolo[4,3-c]pyridin-1-yl)piperidin-1-yl)prop-2-en-1-one]	100	–
C=CC(=O)N1CCC[C@@H](n2nc(-c3ccc(Oc4cccc(OC)c4F)cc3)c3cncc(OC4CCOC4)c32)C1 (stereo partly drawn) [Example 99, 1-((3R)-3-(3-(4-(2-fluoro-3-methoxyphenoxy)phenyl)-7-((tetrahydrofuran-3-yl)oxy)-1H-pyrazolo[4,3-c]pyridin-1-yl)piperidin-1-yl)prop-2-en-1-one]	100	–

From patent US10793566B2, “Bruton's tyrosine kinase inhibitors” (Zibo Biopolar Changsheng Pharmaceutical Co. Ltd., priority 2016, dated 2020)
